Assay results from US4806534A, “Therapeutically active flavonyl-1,4-dihydrophyridines” (Recordati S.A., Chemical & Pharmaceutical Company, priority 1985, dated 1989).
Read-outs that look alike come from different tables or passages of the source.

Experiments:
[1] = tested on: urinary bladder; test: Cystometric recordings in conscious rats (urodynamic parameters); assay type: in vivo; details: conscious rat, perfusion started 60 min after administration
Description: The activity on the urodynamic parameters was detected by cystometric recordings, carried out in conscious rats, according to the method of […] et al, IRCS Medicinal Science, in press (1986), similar to that described by Sjogren, Acta Pharmacol. Toxicol., 39, 177 (1976). The intravesical pressure was recorded during a continuous infusion of saline (37° C.) into the urinary bladder at the constant rate of 0.15 ml/min. […] The perfusion started 60 minutes after administration of the compound.

[2] = LD50 acute toxicity in mice, i.p. and p.o. (Weil method); details: mouse, in vivo
Description: The LD50 of the novel compounds of the invention was determined in mice, both i.p. and p.o., following the method described by C. S. Weil, Biometrics, 8, 249 (1952).

SMILES	% Change BVC (bladder volume capacity) ([1]; 10 mg/kg p.o.)	% Change MP (micturition pressure) ([1]; 10 mg/kg p.o.) [%]	% Change BVC (bladder volume capacity) ([1]; 30 mg/kg p.o.)	% Change MP (micturition pressure) ([1]; 30 mg/kg p.o.) [%]	LD50 ([2]; ip, read-out: LD50 i.p.) [mg/kg]	LD50 ([2]; po, read-out: LD50 p.o.) [mg/kg]
COC(=O)C1=C(C)NC(C)=C(C(=O)OC)C1c1cccc2c(=O)c(C)c(-c3ccccc3)oc12 [i, Dimethyl 2,6-dimethyl-4-(3-methylflavon-8-yl)-1,4-dihydropyridine-3,5-dicarboxylate]	+18%	-14	+21%	-19	889	> 3000
CC1=C(C(=O)OCCCl)C(c2cccc3c(=O)c(C)c(-c4ccccc4)oc23)C(C(=O)OC(C)C)=C(C)N1 (stereo not drawn) [iii, Isopropyl beta-chloroethyl 2,6-dimethyl-4-(3-methylflavon-8-yl)-1,4-dihydropyridine-3,5-dicarboxylate]			+15%	-1	> 1000	> 3000
CC1=C(C(=O)OCCN2CCCCC2)C(c2cccc3c(=O)c(C)c(-c4ccccc4)oc23)C(C(=O)OC(C)C)=C(C)N1 (centres unmarked) [iv, Isopropyl 2,N-piperidinoethyl 2,6-dimethyl-4-(3-methylflavon-8-yl)-1,4-dihydropyridine-3,5-dicarboxylate]					222	> 3000
CC1=C(C(=O)OCCN(C)Cc2ccccc2)C(c2cccc3c(=O)c(C)c(-c4ccccc4)oc23)C(C(=O)OC(C)C)=C(C)N1 (centres unmarked) [v, isopropyl 2-(N-benzyl-N-methylamino)ethyl 2,6-dimethyl-4-(3-methylflavon-8-yl)-1,4-dihydropyridine-3,5-dicarboxylate]	+19%	-16	+22%	-23	959	> 3000
CC1=C(C(=O)OCCN(C)CCC(c2ccccc2)c2ccccc2)C(c2cccc3c(=O)c(C)c(-c4ccccc4)oc23)C(C(=O)OC(C)C)=C(C)N1 (centres unmarked) [vi, isopropyl 2-(N-(3,3-diphenylpropyl)-N-methylamino)ethyl 2,6-dimethyl-4-(3-methylflavon-8-yl)-1,4-dihydropyridine-3,5-dicarboxylate]			+31%	-1	> 1000	> 3000
CCOC(=O)C1=C(C)NC(C)=C(C(=O)OC)C1c1cccc2c(=O)c(C)c(-c3ccccc3)oc12 (centres unmarked) [viii, Methyl ethyl 2,6-dimethyl-4-(3-methylflavon-8-yl)-1,4-dihydropyridine-3,5-dicarboxylate]					> 1000	> 3000
C#CCOC(=O)C1=C(C)NC(C)=C(C(=O)OC)C1c1cccc2c(=O)c(C)c(-c3ccccc3)oc12 (centres unmarked) [xii, Methyl propargyl 2,6-dimethyl-4-(3-methylflavon-8-yl)-1,4-dihydropyridine-3,5-dicarboxylate]					597	> 3000
